The source of these data is patent US20260207576A1 (priority 2024, published 2026).

Each structure is given as a SMILES string.

The target in this assay is Stx2A1 (Escherichia phage 933W, UniProt P09385). Format: biochemical, E. coli (STEC). Particulars: read-out: IC50 against Stx2A1.
Stx2A1, sequence (P09385 23-272 limits assumed): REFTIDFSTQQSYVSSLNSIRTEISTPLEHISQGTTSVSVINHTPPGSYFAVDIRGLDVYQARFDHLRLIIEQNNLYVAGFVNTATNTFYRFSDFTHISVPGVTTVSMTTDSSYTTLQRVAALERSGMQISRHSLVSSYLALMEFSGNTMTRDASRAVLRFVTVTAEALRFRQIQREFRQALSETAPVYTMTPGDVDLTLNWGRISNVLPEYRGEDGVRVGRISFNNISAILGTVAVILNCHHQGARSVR

The IC50 is the concentration that gives 50% inhibition. Regarding `CC1(C)Cc2cc(C(=O)O)sc2-c2ccccc21` [RU-NT-206, 5,5-Dimethyl-4,5-dihydronaphtho[1,2-b]thiophene-2-carboxylic acid], the half-maximal inhibitory concentration (IC50) worked out at 83 ± 30 µM.
